This passage reports mass density results from the NIST ThermoML archive (doi:10.1016/j.tca.2009.05.015).

For the series the following is noted: 293 K; 101.33 kPa; Crystal; X-ray diffraction.

Numbers after ± are expanded uncertainties.

`CCCCCCCCCCCCN.Cl` [dodecanamine hydrochloride]: the mass density is 1022 ± 2 kg/m3.

One may read the mass density as the mass of a sample divided by its volume.
